Tested on: SNB19 cells
Assay: Wound healing assay
Format: cell-based, human
Conditions: 48 hrs after scratching; scratch 2 days after start of treatment
Procedure: The wound healing assay was carried out according to Zhang et al. (2018) J Mol Neurosci 64:262-272. At the designated time, five randomly selected fields at the lesion border were acquired under an inverted microscope (Olympus, IX71). The mean number of cells at the control group was defined as 100% and the mean number of other groups was normalised by means of the control group, respectively.

Substance: verteporfin
- wound healing (cell migration): healed more slowly

— patent publication US20250302999A1, “TRANSGENE CASSETTES AND EPIGENETIC SILENCERS FOR THE TREATMENT OF DISORDERS” (Ospedale San Raffaele S.r.I., priority 2022, published 2025)
